In patent US20250188151A1, “C-JUN ANTAGONIST PEPTIDES” (The University of Bath, priority 2022, published 2025):
Bridge positions count the residues as written; N and C are the ends. Peptide text beside a SMILES is read from it.

Assays:
cJun/TRE DNA interaction = molecular target: T1, cJun/TRE DNA interaction (Homo sapiens, UniProt P05412, S292Y); experiment: CD cJun/TRE DNA antagonism (shift of TRE DNA peak at ~281 nm, Hill fit); format: biochemical; conditions: ratio of CD IC50
T1 construct: The same 60 amino acid c-Jun bZIP construct was used for all experiments; His-SUMO (N, cleaved yes); made in house; host or cells: E. coli
Text: Briefly, in TBS the coding region for the essential gene dihydrofolate reductase (DHFR) is mutated to incorporate TRE sites so that introduction of c-Jun to this gene inside E. coli produces a transcriptional block that abrogates cell proliferation. The TRE site-bound c-Jun molecules sterically prevent RNA polymerase transcribing the essential gene and this can only be restored upon introduction of an effective c-Jun/TRE antagonist. Consequently, the survival of a particular cell is controlled by the ability of a peptide library member to remove the c-Jun transcriptional block and therefore to restore DHFR activity. TBS thus facilitates the identification of therapeutically valuable sequences. Further details for the TBS assay are provided in WO2020128015, which is incorporated herein by reference in its entirety. […] The TRE-DNA construct produces a positive CD peak at ˜281 nm, which decreases in intensity upon c-Jun binding. […] This method allows for the calculation of an IC50 value by fitting the titration data to a Hill equation. In some embodiments, the c-Jun antagonist is able to inhibit the DNA-binding activity of c-Jun within 10-fold of the ability of HingeW to inhibit the DNA-binding activity of c-Jun (e.g. the c-Jun antagonist has a reduced ability to inhibit the DNA-binding activity of c-Jun that is within 10-fold of that determined for HingeW). In some embodiments, the c-Jun antagonist is able to inhibit the DNA-binding activity of c-Jun within 9-fold, preferably within 8-fold, more preferably within 7-fold, even more preferably within 6-fold, yet more preferably within 5-fold of the ability of HingeW to inhibit the DNA-binding activity of c-Jun. The ability of the c-Jun antagonist and HingeW to inhibit the DNA-binding activity may be measured using the TBS assay (e.g. by quantifying the number of colonies) or by determining the IC50 using a circular dichroism assay described herein. Optionally, the c-Jun antagonist may have this activity when cross-linked. Methods for cross-linking peptides are described in more detail below.
Therefore, the acidic domain was the initial focus for optimisation. 1 was iteratively truncated (2-6) to investigate the effect on c-Jun binding and c-Jun/TRE DNA antagonism. […] Thermal denaturation experiments were then used to determine the Tm of peptide-c-Jun heterodimers, which was used as an approximate measure of target engagement. CD was also used to investigate the ability of the functional activity of peptides in antagonising the c-Jun/TRE DNA interaction. The TRE-DNA construct used produces a positive CD peak at ˜281 nm (no c-Jun absorbance at this wavelength allows for direct measurement of DNA upon binding) which decreases in intensity upon c-Jun binding. […] This allowed for the calculation of an IC50 value by fitting the titration data to a Hill equation. […] The same 60 amino acid c-Jun bZIP construct was used for all experiments, regardless of antagonist peptide length.

cJun = cJun (Homo sapiens, UniProt P05412, S292Y); experiment: Isothermal titration calorimetry, Example 2 (PEAQ-ITC); format: binding; parameters: The same 60 amino acid c-Jun bZIP construct was used for all experiments; His-SUMO (N, cleaved yes); made in house; host or cells: E. coli; conditions: ITC
Experimental: 2 μL injections of antagonist peptide at 25-200 μM were injected into the cell containing cJun at 2.5-20 μM. Software was used to record and analyse the heat change upon addition. Control experiments involved the injection of the antagonist peptide sample into the cell containing ITC buffer alone to determine the heat of dilution which was subtracted. The resulting binding data were fit to a one site binding model to extract the enthalpy change of binding (ΔH) and the equilibrium binding constant (KD), from which the free energy change of binding (ΔG) and the entropy change of binding (ΔS) was calculated (Wiseman et al., 1989). Thermodynamic parameters are presented as an average of two independent experiments with errors given as one standard deviation.

cJun bZIP = cJun bZIP (Homo sapiens, UniProt P05412, S292Y); experiment: CD spectra and thermal denaturation of peptide/cJun heterodimers; conditions: peptide (5 μM)/c-Jun (5 μM) heterodimer; Table 6
Experimental: (§1) Circular Dichroism (CD): An Applied Photophysics Chirascan was used for CD measurements, with a 200 μL sample in a 1 mm path length CD cell. Protein/DNA samples were suspended in 150 mM potassium phosphate, 150 mM potassium fluoride and 5 mM TCEP at pH 7.4 and were equilibrated for 30 minutes before measurement. […] These scans were averaged and converted to molar residue ellipticities (MRE). Thermal denaturation experiments were performed by measuring the ellipticity at 222 nm over a 1 to 90° C. gradient at 1° C. increments. Post-melt scans at 20° C. confirmed the transitions were reversible as they overlaid within 10% of the pre-melt scan.
(§2) Circular Dichroism (CD): An Applied Photophysics Chirascan was used for CD measurements, with a 200 μL sample in a 1 mm path length CD cell. Protein/DNA samples were suspended in 150 mM potassium phosphate, 150 mM potassium fluoride and 5 mM TCEP at pH 7.4 and were equilibrated for 30minutes before measurement. […] Thermal denaturation experiments were performed by measuring the ellipticity at 222 nm over a 1 to 90° C. gradient at 1° C. increments. Post-melt scans at 20° C. confirmed the transitions were reversible as they overlaid within 10% of the pre-melt scan.
(§3) Peptide helicity was determined by quantifying the CD signal at 222 nm of peptide only samples. Thermal denaturation experiments were then used to determine the Tm of peptide-c-Jun heterodimers, which was used as an approximate measure of target engagement. […] The same 60 amino acid c-Jun bZIP construct was used for all experiments, regardless of antagonist peptide length.

[1] = CD spectra and thermal denaturation of peptide-only samples (helicity, homodimer Tm)
Experimental: as §1, §2, §3

Which “fold reduction in antagonism relative to 4” value (cJun/TRE DNA interaction) does the source give for “Ac-EAEELVVEEDVLEEEIEQLEERNYALRKEIEDLQKQ-NH2 [Peptide 11]” here?
The value was 1.8 fold.

And the “ΔG” value (cJun)?
The value was -34.10 ± 0.41 kJ/mol.

And the “ΔH” value (cJun)?
The value was -25.06 ± 3.40 kJ/mol.

What about the “−TΔS” value (cJun) of the same molecule?
The value was -8.95 ± 3.42 kJ/mol.

What about the “Stoichiometry, n” value (cJun; c-Jun-peptide interaction) of the same molecule?
Its value is 0.95 ± 0.09.

And the “Tm (° C.)” value (cJun bZIP)?
The value was 57.1 ± 0.9 °C.

What does the source list for `CC[C@H](C)[C@H](NC(=O)[C@H](CCC(=O)O)NC(=O)[C@H](CCCCN)NC(=O)[C@H](CCCNC(=N)N)NC(=O)[C@H](CC(C)C)NC(=O)[C@H](C)NC(=O)[C@H](Cc1ccc(O)cc1)NC(=O)[C@H](CC(N)=O)NC(=O)[C@H](CCCNC(=N)N)NC(=O)[C@H](CCC(=O)O)NC(=O)[C@H](CCC(=O)O)NC(=O)[C@H](CC(C)C)NC(=O)[C@H](CCC(N)=O)NC(=O)[C@H](CCC(=O)O)NC(=O)[C@@H](NC(=O)[C@H](CCC(=O)O)NC(=O)[C@H](CCC(=O)O)NC(=O)[C@H](CCC(=O)O)NC(=O)[C@H](CC(C)C)NC(=O)[C@@H](NC(=O)[C@H](CC(=O)O)NC(=O)[C@H](CCC(=O)O)NC(=O)[C@H](CCC(=O)O)NC(=O)[C@@H](NC(=O)[C@@H](NC(=O)[C@H](CC(C)C)NC(=O)[C@@H]1CC(=O)NCCCC[C@H](NC(C)=O)C(=O)N[C@@H](CCC(=O)O)C(=O)N[C@@H](C)C(=O)N[C@@H](CCC(=O)O)C(=O)N1)C(C)C)C(C)C)C(C)C)[C@@H](C)CC)C(=O)N[C@@H](CCCCN)C(=O)N[C@@H](CC(=O)O)C(=O)N[C@@H](CC(C)C)C(=O)N[C@@H](CCC(N)=O)C(=O)N[C@@H](CC(=O)O)C(=O)N[C@@H](CCC(N)=O)C(N)=O` [Peptide 13] (Ac-KEAEDLVVEEDVLEEEIEQLEERNYALRKEIKDLQDQ-NH2; lactam 1-5)?
change in fraction helicity from lactamisation ([1]; cyclised vs its linear form): ~1%; Tm (° C.) (cJun bZIP): 58.5 ± 1.0 °C

For `CC[C@H](C)[C@H](NC(=O)[C@H](CCC(=O)O)NC(=O)[C@@H]1CC(=O)NCCCC[C@H](NC(=O)[C@H](CC(N)=O)NC(=O)[C@H](CCCCN)NC(=O)[C@H](CCC(=O)O)NC(=O)[C@H](CCC(=O)O)NC(=O)[C@H](CC(C)C)NC(=O)[C@H](CCC(N)=O)NC(=O)[C@H](CCC(=O)O)NC(=O)[C@@H](NC(=O)[C@H](CCC(=O)O)NC(=O)[C@H](CCC(=O)O)NC(=O)[C@H](CCC(=O)O)NC(=O)[C@H](CC(C)C)NC(=O)[C@@H](NC(=O)[C@H](CC(=O)O)NC(=O)[C@H](CCC(=O)O)NC(=O)[C@H](CCC(=O)O)NC(=O)[C@@H](NC(=O)[C@@H](NC(=O)[C@H](CC(C)C)NC(=O)[C@H](CCC(=O)O)NC(=O)[C@H](CCC(=O)O)NC(=O)[C@H](C)NC(=O)[C@H](CCC(=O)O)NC(C)=O)C(C)C)C(C)C)C(C)C)[C@@H](C)CC)C(=O)N[C@@H](C)C(=O)N[C@@H](CC(C)C)C(=O)N[C@@H](CCCCN)C(=O)N1)C(=O)N[C@@H](CCC(=O)O)C(=O)N[C@@H](CC(=O)O)C(=O)N[C@@H](CC(C)C)C(=O)N[C@@H](Cc1ccc(O)cc1)C(N)=O` [Peptide 27] (Ac-EAEELVVEEDVLEEEIEQLEEKNKALKDEIEDLY-NH2; lactam 24-28), which “fold reduction in cJun/TRE antagonism relative to 1” value (cJun/TRE DNA interaction) is on record?
Its value is 8.8 fold.

And the “Tm (° C.)” value (cJun bZIP)?
Its value is 52.5 ± 1.4 °C.

Which results are given for `CC[C@H](C)[C@@H]1NC(=O)[C@H](CCC(=O)O)NC(=O)[C@@H](NC(=O)[C@H](CCCNC(=N)N)NC(=O)[C@H](CC(C)C)NC(=O)[C@H](C)NC(=O)[C@H](Cc2ccc(O)cc2)NC(=O)[C@H](CC(N)=O)NC(=O)[C@H](CCCNC(=N)N)NC(=O)[C@H](CCC(=O)O)NC(=O)[C@H](CCC(=O)O)NC(=O)[C@H](CC(C)C)NC(=O)[C@H](CCC(N)=O)NC(=O)[C@H](CCC(=O)O)NC(=O)[C@@H](NC(=O)[C@H](CCC(=O)O)NC(=O)[C@H](CCC(=O)O)NC(=O)[C@H](CCC(=O)O)NC(=O)[C@H](CC(C)C)NC(=O)[C@@H](NC(=O)[C@H](CC(=O)O)NC(=O)[C@H](CCC(=O)O)NC(=O)[C@H](CCC(=O)O)NC(=O)[C@@H](NC(=O)[C@@H](NC(=O)[C@H](CC(C)C)NC(=O)[C@H](CCC(=O)O)NC(=O)[C@H](CCC(=O)O)NC(=O)[C@H](C)NC(=O)[C@H](CCC(=O)O)NC(C)=O)C(C)C)C(C)C)C(C)C)[C@@H](C)CC)CCCCNC(=O)C[C@@H](C(=O)N[C@@H](CC(C)C)C(=O)N[C@@H](CCC(N)=O)C(N)=O)NC(=O)[C@H](CCC(=O)O)NC1=O` [Peptide 29] (Ac-EAEELVVEEDVLEEEIEQLEERNYALRKEIEDLQ-NH2; lactam 28-32)?
fold reduction in cJun/TRE antagonism relative to 1 (cJun/TRE DNA interaction): 10.4 fold; Tm (° C.) (cJun bZIP): 57.2 ± 0.4 °C

For “Ac-EAEELVVEEDVLEEEIEQLEERNYALRKEIEDL-NH2 [Peptide 25]”, which “fold reduction in antagonism relative to 4” value (cJun/TRE DNA interaction) is on record?
The value was 26.7 fold.

And the “fold reduction in antagonism relative to 11” value (cJun/TRE DNA interaction)?
The value was 14.8 fold.

What about the “Tm (° C.)” value (cJun bZIP) of the same molecule?
The value was 44.8 ± 1.2 °C.

For “RIKAERKRMRNRIAASKCRKRKLERIARLEEKVKTLKAQNYELASTANMLREQVAQLGAP [cJun]”, which “Fraction helicity at 20° C. (CD)” value ([1]; peptide alone) is on record?
The value was 14.0%.

What about the “Tm (° C.) (CD)” value ([1]; peptide alone (homodimer)) of the same molecule?
The value was 39.8 °C.

Which results are given for `CC[C@H](C)[C@H](NC(=O)[C@H](CCC(=O)O)NC(=O)[C@@H]1CC(=O)NCCCC[C@H](NC(=O)[C@H](CC(N)=O)NC(=O)[C@H](CCCCN)NC(=O)[C@H](CCC(=O)O)NC(=O)[C@H](CCC(=O)O)NC(=O)[C@H](CC(C)C)NC(=O)[C@H](CCC(N)=O)NC(=O)[C@H](CCC(=O)O)NC(=O)[C@@H](NC(=O)[C@H](CCC(=O)O)NC(=O)[C@H](CCC(=O)O)NC(=O)[C@H](CCC(=O)O)NC(=O)[C@H](CC(C)C)NC(=O)[C@@H](NC(=O)[C@H](CC(=O)O)NC(=O)[C@H](CCC(=O)O)NC(=O)[C@H](CCC(=O)O)NC(=O)[C@@H](NC(=O)[C@@H](NC(=O)[C@H](CC(C)C)NC(C)=O)C(C)C)C(C)C)C(C)C)[C@@H](C)CC)C(=O)N[C@@H](C)C(=O)N[C@@H](CC(C)C)C(=O)N[C@@H](CCCCN)C(=O)N1)C(=O)N[C@@H](CCC(=O)O)C(=O)N[C@@H](CC(=O)O)C(=O)N[C@@H](CC(C)C)C(=O)N[C@@H](CCC(N)=O)C(=O)N[C@@H](CCCCN)C(=O)N[C@@H](CCC(N)=O)C(=O)N[C@@H](CC(C)C)C(=O)N[C@@H](CCC(=O)O)C(=O)N[C@@H](CCCCN)C(=O)N[C@@H](CC(C)C)C(=O)N[C@@H](Cc1ccc(O)cc1)C(N)=O` [Peptide 8]?
fold increase in antagonism relative to the linear counterpart 5 (cJun/TRE DNA interaction): 1.8 fold; Tm (° C.) (cJun bZIP): 67.2 ± 0.8 °C
